From patent US20060069289A1, “Process for production 2-deoxyaldose compound” (MITSUI CHEMICALS, INC., priority 2003, published 2006)

Test: Stability test of KDG to heat in water (remaining rate observed according to HPLC)
Type: physicochemical
Settings: for Remaining Rate of KDG: water 10 times the amount of KDG
Protocol: HPLC Analytic Conditions: ShodexAsahipack NH2-P50 (manufactured by Showa Denko K.K.), 50 mM sodium hydrogen phosphate aqueous solution, flow rate of 1 ml/min. and detection UV of 210 nm.
1.21 g (5.61 mmole) of KDG potassium salt was dissolved in 10 g of water (10 times the amount of KDG). pH of the solution was 7.3. Subsequently, when 64 mg (1.69 mmole: 0.3 equivalent) of granular sodium borohydride was added at 25° C., the reaction temperature increased to 33° C. Furthermore, pH after the completion of the reaction was 10.8. After the reaction was completed, when observed by HPLC, the reaction yield of metasaccharic acid was 94%. The reaction heat was observed as remarkable. […] In order to carry out the reaction with the good yield, stability to the heat of KDG was measured in the presence of water with 10 times the amount of KDG. (Table 1) (Table 2) (Table 3)
Here, the results of stability test to the KDG heat in the presence of water 10 times the amount of KDG are shown below. (Table 4)

In the case of `O=C(O)C(O)CC(O)C(O)CO` (stereo not drawn), the “Stability (in words)” value (generated product of the sodium borohydride reduction, aqueous reaction conditions) is reported as “stable”.
With `O=C(O)C(=O)C[C@H](O)[C@H](O)CO` [KDG, 2-keto-3-deoxy-D-gluconic acid] the “Remaining Rate of KDG” value (pH 7.0, 25° C., 2 hours) was 101%, the “Remaining Rate of KDG” value (pH 7.0, 25° C., 4 hours) was 100% and the “Remaining Rate of KDG” value (pH 7.0, 25° C., 21 hours) was 100%. For the same compound, the “Remaining Rate of KDG” value (pH 7.0, 25° C., 24 hours) was 101%, the “Remaining Rate of KDG” value (pH 7.0, 50° C., 2 hours) was 100% and the “Remaining Rate of KDG” value (pH 7.0, 50° C., 4 hours) was 101%. For the same compound, the “Remaining Rate of KDG” value (pH 7.0, 50° C., 21 hours) was 100%, the “Remaining Rate of KDG” value (pH 7.0, 50° C., 24 hours) was 99% and the “Remaining Rate of KDG” value (pH 8.5, 25° C., 2 hours) was 100%. The “Remaining Rate of KDG” value (pH 8.5, 25° C., 4 hours) was 99%, the “Remaining Rate of KDG” value (pH 8.5, 25° C., 21 hours) was 101% and the “Remaining Rate of KDG” value (pH 8.5, 25° C., 24 hours) was 100%. The “Remaining Rate of KDG” value (pH 8.5, 50° C., 2 hours) was 101%, the “Remaining Rate of KDG” value (pH 8.5, 50° C., 4 hours) was 100% and the “Remaining Rate of KDG” value (pH 8.5, 50° C., 21 hours) was 99%. The “Remaining Rate of KDG” value (pH 8.5, 50° C., 24 hours) was 98%, the “Remaining Rate of KDG” value (pH 10.5, 25° C., 2 hours) was 102% and the “Remaining Rate of KDG” value (pH 10.5, 25° C., 4 hours) was 101%. The “Remaining Rate of KDG” value (pH 10.5, 25° C., 21 hours) was 100%, the “Remaining Rate of KDG” value (pH 10.5, 25° C., 24 hours) was 101% and the “Remaining Rate of KDG” value (pH 10.5, 50° C., 2 hours) was 101%. For the same compound, the “Remaining Rate of KDG” value (pH 10.5, 50° C., 4 hours) was 99%, the “Remaining Rate of KDG” value (pH 10.5, 50° C., 21 hours) was 94% and the “Remaining Rate of KDG” value (pH 10.5, 50° C., 24 hours) was 93%. The “Remaining Rate of KDG” value (pH 12.0, 4° C., 2 hours) was 101%, the “Remaining Rate of KDG” value (pH 12.0, 4° C., 4 hours) was 99% and the “Remaining Rate of KDG” value (pH 12.0, 4° C., 21 hours) was 100%. For the same compound, the “Remaining Rate of KDG” value (pH 12.0, 4° C., 24 hours) was 98%, the “Remaining Rate of KDG” value (pH 12.0, 25° C., 2 hours) was 99% and the “Remaining Rate of KDG” value (pH 12.0, 25° C., 4 hours) was 95%. For the same compound, the “Remaining Rate of KDG” value (pH 12.0, 25° C., 21 hours) was 84%, the “Remaining Rate of KDG” value (pH 12.0, 25° C., 24 hours) was 79% and the “Stability to heat (in words)” value (pH 12.0, 50° C.) was “remarkably decomposed”. For the same compound, the “Remaining Rate of KDG” value (pH 12.0, 50° C., 2 hours) was 61% and the “Remaining Rate of KDG” value (pH 12.0, 50° C., 4 hours) was 56%.
